What all share (assay): ≥ marks a high value that may be exact or a test limit, other limits are often not marked, values filed in µg/mL are converted to µM
Assay [1] concerns Escherichia coli JW0013.
Assay [2] relates to Staphylococcus aureus USA 100.
In assay [3] the test system is Bacillus subtilis KCTC 3068.
For assay [4], the system named is Staphylococcus aureus.
The subject of assay [5] is Escherichia coli KCTC 1682.
Assay [6] deals with Pseudomonas aeruginosa KCTC 1637.
Assay [7] deals with Staphylococcus epidermidis KCTC 1917.
Assay [8] has as its system Salmonella typhimurium KCTC 1926.
For assay [9], the system named is Enterococcus faecium.
The test system of assay [10] is Staphylococcus aureus KCTC 1621.
Assay [11] relates to Pectobacterium carotovorum.
Assay [12] has as its system Escherichia coli.
The subject of assay [13] is Escherichia coli ATCC 25922.
For assay [14], the system named is Staphylococcus aureus ATCC 25923.
Assay [15] concerns Escherichia coli ATCC 8739.
The test system of assay [16] is Klebsiella pneumoniae.
The test system of assay [17] is Pseudomonas aeruginosa.
Assay [18] concerns Staphylococcus epidermidis.
The subject of assay [19] is Proteus vulgaris.
The subject of assay [20] is Bacillus subtilis.
The subject of assay [21] is Streptococcus pyogenes.
For assay [22], the system named is Salmonella typhimurium.
For assay [23], the system named is Candida albicans ATCC 90028.
In assay [24] the test system is Pseudomonas aeruginosa ATCC 9027.
Assay [25] deals with Staphylococcus aureus USA 300.
The test system of assay [26] is Staphylococcus aureus CCARM 3089.
For assay [27], the system named is Pseudomonas aeruginosa PAO1.
Assay [28] relates to Streptococcus pyogenes M1T1 5448.
Assay [29] has as its system Escherichia coli BL21.

Converted amounts (≈) assume the structure as drawn. A value given as a limit tells only on which side of the number the result lay.

In the case of `CC[C@H](C)[C@H](NC(=O)[C@H](CCCN=C(N)N)NC(=O)[C@H](CCCN=C(N)N)NC(=O)[C@@H]1CCCN1C(=O)[C@@H]1CCCN1C(=O)[C@H](CCCN=C(N)N)NC(=O)[C@@H]1CCCN1C(=O)[C@H](CCCN=C(N)N)NC(=O)[C@@H]1CCCN1C(=O)[C@H](CC(C)C)NC(=O)[C@H](Cc1ccc(O)cc1)NC(=O)[C@@H]1CCCN1C(=O)[C@H](CCSC)NC(=O)[C@H](CCCCN)NC(=O)[C@H](CC(=O)O)NC(=O)[C@@H](N)C(C)C)C(=O)N[C@@H](Cc1ccc(O)cc1)C(=O)N[C@@H](CC(N)=O)C(=O)N[C@@H](CCCN=C(N)N)C(N)=O` [VDKMPYLPRPRPPRRIYNR], in [1], the minimal inhibitory concentration (MIC) came to 1.28 µM (≈ 3.1 µg/mL).
Regarding `CC[C@H](C)[C@H](N)C(=O)N[C@@H](CCCN=C(N)N)C(=O)N[C@H](C(=O)N[C@@H](CCCN=C(N)N)C(N)=O)[C@@H](C)CC` [IRIR], the MIC in assay [2] is no less than 100 µM.
Take `NC(N)=NCCC[C@H](NC(=O)[C@H](CCCN=C(N)N)NC(=O)[C@H](Cc1ccccc1)NC(=O)[C@@H]1CCCN1C(=O)[C@H](Cc1c[nH]c2ccccc12)NC(=O)[C@H](Cc1c[nH]c2ccccc12)NC(=O)[C@H](Cc1c[nH]c2ccccc12)NC(=O)[C@@H]1CCCN1C(=O)[C@H](Cc1ccccc1)NC(=O)[C@H](CCCN=C(N)N)NC(=O)[C@@H](N)CCCN=C(N)N)C(=O)O` [RRFPWWWPFRR]: the MIC in [3] was 2.37 µM (≈ 4 µg/mL); in assay [4] it was 3.35 µM (≈ 5.66 µg/mL); in assay [5], 9.47 µM (≈ 16 µg/mL); in assay [6], 9.47 µM (≈ 16 µg/mL); in assay [7], 1.18 µM (≈ 2 µg/mL); in assay [8] it was 4.73 µM (≈ 8 µg/mL). For the same molecule, the MIC in [9] and in [10] was 2.37 µM (≈ 4 µg/mL) throughout.
Consider `CC(C)C[C@H](NC(=O)[C@H](Cc1ccccc1)NC(=O)CNC(=O)[C@H](C)NC(=O)[C@H](Cc1ccccc1)NC(=O)[C@@H](NC(=O)[C@H](CCCN=C(N)N)NC(=O)[C@H](CC(=O)O)NC(=O)[C@H](CCCCN)NC(=O)[C@H](CCC(=O)O)NC(=O)[C@@H](N)CCC(N)=O)[C@@H](C)O)C(=O)N[C@@H](CC(C)C)C(=O)N[C@@H](CCCCN)C(=O)NCC(=O)N[C@@H](Cc1ccccc1)C(=O)NCC(=O)N[C@H](C(=O)N[C@@H](CO)C(=O)N[C@@H](C)C(=O)N[C@@H](CO)C(=O)O)[C@@H](C)O` [QEKDRTFAGFLLKGFGTSAS], for which the MIC in assay [11] turned out to be 1.34 µM.
Turning to `CC[C@H](C)[C@H](NC(=O)[C@H](CCCN=C(N)N)NC(=O)[C@H](C)NC(=O)[C@H](C)NC(=O)[C@H](CC(C)C)NC(=O)[C@H](CCCCN)NC(=O)[C@H](CCCCN)NC(=O)[C@H](CCCCN)NC(=O)[C@H](CCSC)NC(=O)[C@@H]1CCCN1)C(=O)N[C@@H](CC(C)C)C(=O)N[C@@H](C)C(=O)N[C@@H](CCCCN)C(=O)N[C@H](C(=O)N[C@H](C(=O)N[C@@H](C)C(=O)N1CCC[C@H]1C(=O)N[C@H](C(=O)N[C@@H](Cc1c[nH]c2ccccc12)C(=O)O)C(C)C)C(C)C)[C@@H](C)CC` [PMKKKLAARILAKIVAPVW], the MIC was 30 µM (≈ 64 µg/mL) in [12]; 11.7 µM (≈ 25 µg/mL) in assay [13]; greater than 120 µM in assay [14]; 7.5 µM (≈ 16 µg/mL) in assay [15]; 60.9 µM (≈ 130 µg/mL) in assay [16].
On to `CC(C)C[C@H](NC(=O)[C@H](CCCN=C(N)N)NC(=O)[C@@H]1CCCN1C(=O)[C@H](Cc1cnc[nH]1)NC(=O)[C@@H]1CCCN1C(=O)[C@@H]1CCCN1C(=O)[C@H](CCCN=C(N)N)NC(=O)[C@@H]1CCCN1C(=O)[C@H](CCC(N)=O)NC(=O)[C@@H]1CCCN1)C(=O)O` [PQPRPPHPRL], for which the MIC in assay [12] is 64 µM (≈ 76.4 µg/mL); in assay [17] it was 64 µM (≈ 76.4 µg/mL); in assay [18], no less than 64 µM; in [19], no less than 64 µM; in [20] it was no less than 64 µM; in [21] it was no less than 64 µM. This molecule came in with an MIC in assay [22] of 16 µM (≈ 19.1 µg/mL).
For `NC(=O)C[C@H](NC(=O)[C@H](Cc1ccccc1)NC(=O)[C@@H](N)Cc1c[nH]c2ccccc12)C(=O)O` [WFN], the MIC in assay [23] was no less than 100 µM; in assay [24] it was greater than 100 µM; in assay [2], no less than 100 µM; in assay [25], no less than 100 µM.
`CC(C)C[C@H](NC(=O)[C@H](CCCN=C(N)N)NC(=O)[C@@H]1CCCN1C(=O)[C@H](Cc1cnc[nH]1)NC(=O)[C@@H]1CCCN1C(=O)[C@@H]1CCCN1C(=O)[C@H](CCCN=C(N)N)NC(=O)[C@@H]1CCCN1C(=O)[C@H](CCC(N)=O)NC(=O)[C@@H]1CCCN1C(=O)[C@H](CCCN=C(N)N)NC(=O)[C@H](Cc1ccc(O)cc1)NC(=O)[C@@H](NC(=O)[C@@H]1CCCN1C(=O)[C@H](CCCN=C(N)N)NC(=O)[C@H](CC(N)=O)NC(=O)[C@H](CC(N)=O)NC(=O)CN)C(C)C)C(=O)O` [GNNRPVYRPQPRPPHPRL]: the MIC in assay [1] turned out to be 0.3 µM (≈ 0.645 µg/mL).
For the molecule `CC[C@H](C)[C@H](NC(=O)[C@H](CCCN=C(N)N)NC(=O)[C@H](CCCCN)NC(=O)[C@@H](NC(=O)[C@@H](NC(=O)[C@H](CCCN=C(N)N)NC(=O)[C@@H](N)CCCCN)[C@@H](C)CC)C(C)C)C(=O)N[C@@H](CCCCN)C(=O)N[C@@H](CCCCN)C(=O)N[C@@H](Cc1c[nH]c2ccccc12)C(=O)N[C@@H](CC(C)C)C(=O)N[C@@H](CCCN=C(N)N)C(N)=O` [KRIVKRIKKWLR], the MIC in assay [3] worked out at 2 µM (≈ 3.25 µg/mL); in [5], 2 µM (≈ 3.25 µg/mL); in assay [6] it was 8 µM (≈ 13 µg/mL); in assay [7], 1 µM (≈ 1.62 µg/mL); in [8] it was 2 µM (≈ 3.25 µg/mL); in [26] it was 4 µM (≈ 6.49 µg/mL). Besides, in [10], the MIC came out at 2 µM (≈ 3.25 µg/mL).
Consider `CC[C@H](C)[C@H](NC(=O)[C@H](CCCCN)NC(=O)[C@H](CCCCN)NC(=O)[C@H](CCCCN)NC(=O)[C@H](CC(C)C)NC(=O)[C@H](Cc1ccccc1)NC(=O)[C@H](CCC(N)=O)NC(=O)[C@H](CCCN=C(N)N)NC(=O)[C@@H](NC(=O)[C@@H](NC(=O)[C@H](CCC(=O)O)NC(=O)[C@H](CCCCN)NC(=O)CNC(=O)[C@H](C)N)[C@@H](C)O)[C@@H](C)CC)C(=O)N[C@@H](CCC(N)=O)C(=O)N[C@@H](CCC(=O)O)C(=O)N[C@@H](CCCCN)C(=O)NCC(=O)N[C@@H](CCCCN)C(=O)N[C@@H](CCCN=C(N)N)C(=O)N[C@@H](C)C(=O)N[C@H](C(=O)N[C@H](C(=O)N[C@@H](C)C(=O)N[C@@H](Cc1c[nH]c2ccccc12)C(=O)O)[C@@H](C)CC)[C@@H](C)O` [AGKETIRQFLKKKIQEKGKRATIAW], for which the MIC was greater than 128 µM in [27], 8 µM (≈ 23.4 µg/mL) in assay [28] and no less than 32 µM in assay [29].
For `CC[C@H](C)[C@H](NC(=O)[C@H](Cc1ccccc1)NC(=O)[C@H](C)NC(=O)[C@H](CCCCN)NC(=O)[C@H](CCCCN)NC(=O)CNC(=O)[C@H](CCCN=C(N)N)NC(=O)[C@H](CCCCN)NC(=O)[C@H](CCCN=C(N)N)NC(=O)[C@H](CC(C)C)NC(=O)[C@H](CCC(=O)O)NC(=O)[C@H](CCC(=O)O)NC(=O)[C@H](CCCCN)NC(=O)[C@H](CC(C)C)NC(=O)[C@H](Cc1ccc(O)cc1)NC(=O)[C@H](CC(C)C)NC(=O)[C@@H](NC(=O)[C@H](CC(C)C)NC(=O)[C@H](C)NC(=O)[C@H](CCC(N)=O)NC(=O)[C@H](CCCN=C(N)N)NC(=O)CNC(=O)[C@H](C)N)[C@@H](C)O)C(=O)N[C@@H](C)C(=O)N[C@@H](Cc1c[nH]c2ccccc12)C(=O)O` [AGRQALTLYLKEELRKRGKKAFIAW] the same measures were greater than 128 µM, 16 µM (≈ 47.2 µg/mL) and no less than 32 µM.

One may read the MIC as the least concentration at which growth counts as inhibited. A higher MIC goes with weaker potency.
